Values after ≈ are worked out from the molar mass of the structure shown.
Experiments:
Type in all cases: cell-based
[1] = tested on: P. aeruginosa ATCC 27853 (PA111); experiment: Minimum inhibitory concentration assay, PA111; details: Pseudomonas aeruginosa, ATCC27853; P. aeruginosa ATCC 27853, wt; read-out: MICs PA111
Experimental: (§1) Frozen bacterial strains were thawed and subcultured onto Mueller Hinton Broth (MHB) or other appropriate media (Streptococcus requires blood and Haemophilus requires hemin and NAD). Following incubation overnight, the strains were subcultured onto Mueller Hinton Agar and again incubated overnight. […] Isolated colonies were selected to prepare a starting inoculum equivalent to a 0.5 McFarland standard. The starting inoculum was diluted 1:125 using MHB for further use. Test compounds were prepared by dilution in sterile water to a final concentration of 5.128 mg/mL. Antibiotics (stored frozen, thawed and used within 3 hours of thawing) and compounds were further diluted to the desired working concentrations.
(§2) The assays were run as follows. Fifty μL of MHB was added to wells 2-12 of a 96-well plate. One hundred […] of appropriately diluted antibiotics was added to well 1. Fifty μL of antibiotics was removed from well 1 and added to well 2 and the contents of well 2 mixed by pipetting up and down five times. Fifty μL of the mixture in well 2 was removed and added to well 3 and mixed as above. Serial dilutions were continued in the same manner through well 12. Fifty μL was removed from well 12 so that all contained 50 μL. Fifty μL of the working inoculum was then added to all test wells. A growth control well was prepared by adding 50 μL of working inoculum and 50 μL of MHB to an empty well. The plates were then incubated at 37° C. overnight, removed from the incubator and each well was read on a plate reading mirror. The lowest concentration (MIC) of test compound that inhibited the growth of the bacteria was recorded.

[2] = tested on: S. aureus ATCC 29213 (SA101, MSSA); experiment: Minimum inhibitory concentration assay, SA101; details: Staphylococcus aureus; S. aureus ATCC 29213, MSSA control; read-out: MICs SA101
Experimental: as §1, §2

[3] = tested on: S. aureus SA161 (tet resistant: tet(M) ribosomal protection); experiment: Minimum inhibitory concentration assay, SA161; details: Staphylococcus aureus, read-out: MICs SA161
Experimental: as §1, §2

[4] = tested on: S. aureus ATCC 13709 (SA100, MSSA, Smith strain); experiment: Minimum inhibitory concentration assay, SA100; details: Staphylococcus aureus; S. aureus ATCC 13709, MSSA Smith strain; read-out: MICs SA100
Experimental: as §1, §2

[5] = tested on: S. pneumoniae ATCC 49619 (SP106); experiment: Minimum inhibitory concentration assay, SP106; details: Streptococcus pneumoniae, ATCC49619; S. pneumoniae ATCC 49619, wt; read-out: MICs SP106
Experimental: as §1, §2

[6] = tested on: E. cloacae ATCC 13047 (EC108); experiment: Minimum inhibitory concentration assay, EC108; details: Enterobacter cloacae, ATCC13047; E. cloacae ATCC 13047, wt; read-out: MICs EC108
Experimental: as §1, §2

[7] = tested on: E. faecalis ATCC 29212 (EF103); experiment: Minimum inhibitory concentration assay, EF103; details: Enterococcus faecalis, ATCC29212, read-out: MICs EF103
Experimental: as §1, §2

[8] = tested on: S. pneumoniae SP160 (tet resistant: tet M); experiment: Minimum inhibitory concentration assay, SP160; details: Streptococcus pneumoniae, read-out: MICs SP160
Experimental: as §1, §2

[9] = tested on: E. coli ATCC 25922 (EC107); experiment: Minimum inhibitory concentration assay, EC107; details: Escherichia coli, ATCC25922; E. coli ATCC 25922, wt; read-out: MICs EC107
Experimental: as §1, §2

[10] = tested on: A. baumanii ATCC 19606 (AB110); experiment: Minimum inhibitory concentration assay, AB110; details: Acinetobacter baumannii, ATCC19606; A. baumanii ATCC 19606, wt; read-out: MICs AB110
Experimental: as §1, §2

[11] = tested on: E. faecalis EF159 (tet resistant: tetM); experiment: Minimum inhibitory concentration assay, EF159; details: Enterococcus faecalis, read-out: MICs EF159
Experimental: as §1, §2

[12] = tested on: K. pneumoniae ATCC 13883 (KP109); experiment: Minimum inhibitory concentration assay, KP109; details: Klebsiella pneumoniae, ATCC13883; K. pneumoniae ATCC 13883, wt; read-out: MICs KP109
Experimental: as §1, §2

[13] = tested on: S. aureus SA158 (tet resistant: tetK efflux); experiment: microbe, parasite or virus in culture; details: Staphylococcus aureus, read-out: MICs SA158
Experimental: as §1, §2

[14] = tested on: K. pneumoniae KP153 (tet resistant: tetA efflux); experiment: microbe, parasite or virus in culture; details: Klebsiella pneumoniae, read-out: MICs KP153
Experimental: as §1, §2

[15] = tested on: E. coli EC155 (tet resistant: tetA efflux); experiment: microbe, parasite or virus in culture; details: Escherichia coli; E. coli tet resistant: tetA (efflux); read-out: MICs EC155
Experimental: as §1, §2

Row | Structure (SMILES) | MIC [1] [µg/mL] | MIC [2] [µg/mL] | MIC [3] [µg/mL] | MIC [4] [µg/mL] | MIC [5] [µg/mL] | MIC [6] [µg/mL] | MIC [7] [µg/mL] | MIC [8] [µg/mL] | MIC [9] [µg/mL] | MIC [10] [µg/mL] | MIC [11] [µg/mL] | MIC [12] [µg/mL] | MIC [13] [µg/mL] | MIC [14] [µg/mL] | MIC [15] [µg/mL]
1 | COCCNCC(=O)Nc1cc(F)c2c(c1O)C(=O)C1=C(O)[C@]3(O)C(=O)C(C(N)=O)=C(O)[C@@H](N(C)C)[C@@H]3C[C@@H]1C2 [Compound 21] | 16 (≈ 28.4 µM) | 0.25 (≈ 0.444 µM) | 0.5 (≈ 0.889 µM) | 0.25 (≈ 0.444 µM) | ≤ 0.0156 | 4 (≈ 7.11 µM) | 0.125 (≈ 0.222 µM) | 0.0625 (≈ 0.111 µM) | 1 (≈ 1.78 µM) | 2 (≈ 3.56 µM) | 1 (≈ 1.78 µM) | 2 (≈ 3.56 µM) | 4 (≈ 7.11 µM) | 8 (≈ 14.2 µM) | 16 (≈ 28.4 µM)
2 | COC[C@H]1CCCN1CC(=O)Nc1cc(F)c2c(c1O)C(=O)C1=C(O)[C@]3(O)C(=O)C(C(N)=O)=C(O)[C@@H](N(C)C)[C@@H]3C[C@@H]1C2 [Compound 42] | > 32 | 0.5 (≈ 0.83 µM) | 2 (≈ 3.32 µM) | 1 (≈ 1.66 µM) | 0.125 (≈ 0.207 µM) | 16 (≈ 26.6 µM) | 0.5 (≈ 0.83 µM) | 0.0625 (≈ 0.104 µM) | 4 (≈ 6.64 µM) | 0.5 (≈ 0.83 µM) | 1 (≈ 1.66 µM) | 8 (≈ 13.3 µM) | 1 (≈ 1.66 µM) | 16 (≈ 26.6 µM) | 16 (≈ 26.6 µM)
3 | CN(C)[C@@H]1C(O)=C(C(N)=O)C(=O)[C@@]2(O)C(O)=C3C(=O)c4c(O)c(NC(=O)CNC(C)(C)C)cc(F)c4C[C@H]3C[C@@H]12 [Compound 11] | 16 (≈ 28.5 µM) | 0.125 (≈ 0.223 µM) | 0.25 (≈ 0.446 µM) | 0.25 (≈ 0.446 µM) | ≤ 0.0156 | 1 (≈ 1.78 µM) | 0.0625 (≈ 0.111 µM) | ≤ 0.0156 | 0.25 (≈ 0.446 µM) | 0.5 (≈ 0.892 µM) | 0.125 (≈ 0.223 µM) | 1 (≈ 1.78 µM) | 0.0625 (≈ 0.111 µM) | 2 (≈ 3.57 µM) | 2 (≈ 3.57 µM)
4 | CCCNCC(=O)Nc1cc(F)c2c(c1O)C(=O)C1=C(O)[C@]3(O)C(=O)C(C(N)=O)=C(O)[C@@H](N(C)C)[C@@H]3C[C@@H]1C2 [Compound 12] | 16 (≈ 29.3 µM) | ≤ 0.0156 | 0.125 (≈ 0.229 µM) | ≤ 0.0156 | ≤ 0.0156 | 1 (≈ 1.83 µM) | ≤ 0.0156 | ≤ 0.0156 | 0.25 (≈ 0.457 µM) | 1 (≈ 1.83 µM) | 0.0625 (≈ 0.114 µM) | 1 (≈ 1.83 µM) | 0.5 (≈ 0.915 µM) | 4 (≈ 7.32 µM) | 8 (≈ 14.6 µM)
5 | CN(C)[C@@H]1C(O)=C(C(N)=O)C(=O)[C@@]2(O)C(O)=C3C(=O)c4c(O)c(NC(=O)CN5CCC5)cc(F)c4C[C@H]3C[C@@H]12 [Compound 32] | 8 (≈ 14.7 µM) | 0.125 (≈ 0.23 µM) | 0.25 (≈ 0.459 µM) | 0.5 (≈ 0.918 µM) | ≤ 0.0156 | 1 (≈ 1.84 µM) | 0.0625 (≈ 0.115 µM) | ≤ 0.0156 | 0.25 (≈ 0.459 µM) | 2 (≈ 3.67 µM) | 0.125 (≈ 0.23 µM) | 1 (≈ 1.84 µM) | 0.5 (≈ 0.918 µM) | 4 (≈ 7.35 µM) | 8 (≈ 14.7 µM)
6 | CN(C)[C@@H]1C(O)=C(C(N)=O)C(=O)[C@@]2(O)C(O)=C3C(=O)c4c(O)c(NC(=O)CN5CC[C@@H](O)C5)cc(F)c4C[C@H]3C[C@@H]12 [Compound 39] | > 32 | 2 (≈ 3.48 µM) | 2 (≈ 3.48 µM) | 2 (≈ 3.48 µM) | 0.25 (≈ 0.435 µM) | 16 (≈ 27.8 µM) | 2 (≈ 3.48 µM) | 0.5 (≈ 0.87 µM) | 4 (≈ 6.96 µM) | 32 (≈ 55.7 µM) | 2 (≈ 3.48 µM) | 16 (≈ 27.8 µM) | 16 (≈ 27.8 µM) | > 32 | > 32
7 | CC(C)NCC(=O)Nc1cc(F)c2c(c1O)C(=O)C1=C(O)[C@]3(O)C(=O)C(C(N)=O)=C(O)[C@@H](N(C)C)[C@@H]3C[C@@H]1C2 [Compound 16] | 16 (≈ 29.3 µM) | 0.125 (≈ 0.229 µM) | 0.25 (≈ 0.457 µM) | 0.25 (≈ 0.457 µM) | ≤ 0.0156 | 1 (≈ 1.83 µM) | 0.0625 (≈ 0.114 µM) | ≤ 0.0156 | 0.5 (≈ 0.915 µM) | 1 (≈ 1.83 µM) | 0.0625 (≈ 0.114 µM) | 1 (≈ 1.83 µM) | 0.5 (≈ 0.915 µM) | 4 (≈ 7.32 µM) | 8 (≈ 14.6 µM)
8 | CN(C)[C@@H]1C(O)=C(C(N)=O)C(=O)[C@@]2(O)C(O)=C3C(=O)c4c(O)c(NC(=O)CNC5CC5)cc(F)c4C[C@H]3C[C@@H]12 [Compound 17] | 32 (≈ 58.8 µM) | 0.25 (≈ 0.459 µM) | 1 (≈ 1.84 µM) | 0.5 (≈ 0.918 µM) | 0.0625 (≈ 0.115 µM) | 8 (≈ 14.7 µM) | 0.25 (≈ 0.459 µM) | 0.0625 (≈ 0.115 µM) | 2 (≈ 3.67 µM) | 0.5 (≈ 0.918 µM) | 1 (≈ 1.84 µM) | 4 (≈ 7.35 µM) | 2 (≈ 3.67 µM) | 32 (≈ 58.8 µM) | 32 (≈ 58.8 µM)
9 | CN(C)[C@@H]1C(O)=C(C(N)=O)C(=O)[C@@]2(O)C(O)=C3C(=O)c4c(O)c(NC(=O)CN5CC6CCCC6C5)cc(F)c4C[C@H]3C[C@@H]12 (stereo partly drawn) [Compound 45] | > 32 | 0.5 (≈ 0.835 µM) | 1 (≈ 1.67 µM) | 0.5 (≈ 0.835 µM) | 0.125 (≈ 0.209 µM) | 4 (≈ 6.68 µM) | 0.25 (≈ 0.418 µM) | 0.06 (≈ 0.1 µM) | 1 (≈ 1.67 µM) | 0.06 (≈ 0.1 µM) | 0.5 (≈ 0.835 µM) | 2 (≈ 3.34 µM) | 0.5 (≈ 0.835 µM) | 4 (≈ 6.68 µM) | 2 (≈ 3.34 µM)
